Test results reported in PMC6403271, “Characterization, mechanism of action and optimization of activity of a novel peptide-peptoid hybrid against bacterial pathogens involved in canine skin infections” (Scientific Reports, 2019).
Square brackets hold non-standard residues; d marks the D form. Peptide text beside a SMILES is read from it. N(1-naphthylmethyl)Gly = O=C(O)CNCc1cccc2ccccc12; N(4-MeBn)Gly = Cc1ccc(CNCC(=O)O)cc1; NBuGly = CCCCNCC(=O)O

System: MRSP E104
Test: Time-kill kinetics, MRSP E104
Assay type: cell-based, Staphylococcus pseudintermedius
Description: Time kill assays were performed in triplicate, meaning that every value is the average of three different samplings. Time–kill kinetic assays were performed using P. aeruginosa (26314), MRSP E104 and/or MRSP C22963 to determine the cell killing activity of B1 and two of its most promising analogues (compounds 23 and 26) based on prior antimicrobial susceptibility testing. The method reported by Blondeau et al.[63] was followed with minor modifications. […] After 0, 15, 30, 60, 120, 180 and 300 min of growth, 100 μL aliquots were collected and 10-fold serially diluted. Twenty μL of cell suspension from each dilution were spotted in triplicate on blood agar plates followed by 16–18 h incubation at 37 °C and determination of colony forming units (CFU).

CCCCN(CC(=O)N[C@@H](CCCCN)C(=O)N(CC(=O)N(CC(=O)N(CC(N)=O)Cc1cccc2ccccc12)Cc1ccc(C)cc1)Cc1cccc2ccccc12)C(=O)[C@H](CCCCN)NC(=O)[C@@H](N)CCCCN [B1, Lys-Lys-(NBu)Gly-Lys-(N1-Nal)Gly-(N4-MeBn)Gly-(N1-Nal)Gly] (H-KK[NBuGly]K[N(1-naphthylmethyl)Gly][N(4-MeBn)Gly][N(1-naphthylmethyl)Gly]-NH2)
time to complete killing of MRSP E104 (2 × MIC): 2 h
time to complete killing of MRSP E104 (4 × MIC): 1 h
time to kill MRSP (8 x MIC): less than 30 min
